# Molecular target: T1, SARS-CoV-2 M^pro (main protease) (Severe acute respiratory syndrome coronavirus 2, UniProt P0DTD1)
# T1 construct: gene rep
# Assay: FRET peptide cleavage assay, Morrison fit
# Format: biochemical
compound,measurement,value
O=c1c(O)c(-c2ccc(O)c(O)c2)oc2cc(O)ccc12 [Fisetin],Ki,41.8 ± 2.1 nM
